Data: patent publication EP2340832A1, “Morphinan-6-one compounds for the treatment or prevention of neurodegenerative diseases” (Universität Innsbruck, priority 2009, dated 2011)
Read-outs that look alike come from different tables or passages of the source.

Assays:
[1] = test system: C57BL/6N female mice; assay: Open field (locomotor activity); assay type: in vivo; details: for general locomotion in the open field (move distance, move time): 10 min
Excerpt: Each mouse was used only once. […] . […] Thereafter it was replaced by the obturator.
The open field consisted of a transparent plastic box with white floor (41 x 41 x 41 cm) equipped with an automated activity monitoring system (True Scan, Coulbourn Instruments, Allentown, Pennsylvania, USA). The illumination at floor level was 150 lux. Mice were individually placed into the centre of the open field and their behaviours were tracked with the activity monitoring system. The time of locomotor activity, the overall distance travelled by the mice and the fraction of locomotor activity in the center area (center distance and center time) were monitored for 10 min. The arena was thoroughly cleaned with wet paper towels and dried at the end of each test.
Statistical analysis: All data from behavioural studies are shown as mean ± SEM. Statistical analysis was performed using the analysis of variance (ANOVA), followed by post hoc multiple comparisons Tukey-Kramer test, except comparison of alternation rates with the theoretical value of chance (defined as 50%) which was evaluated by Wilcoxon signed rank test. All statistical analyses were carried out by using the Graphpad Prism Program, version 4.0, Graphpad software, Inc.

[2] = target: µ opioid receptor (Rattus norvegicus, UniProt P33535); assay: Opioid receptor binding assay, [3H]DAMGO, rat brain membranes; parameters: Membrane fractions were prepared from Sprague-Dawley rat or guinea pig brains; from tissue; host or cells: Sprague-Dawley rat brain (without cerebella) membranes; species or system Sprague-Dawley rat
Chain of µ opioid receptor (P33535 whole entry): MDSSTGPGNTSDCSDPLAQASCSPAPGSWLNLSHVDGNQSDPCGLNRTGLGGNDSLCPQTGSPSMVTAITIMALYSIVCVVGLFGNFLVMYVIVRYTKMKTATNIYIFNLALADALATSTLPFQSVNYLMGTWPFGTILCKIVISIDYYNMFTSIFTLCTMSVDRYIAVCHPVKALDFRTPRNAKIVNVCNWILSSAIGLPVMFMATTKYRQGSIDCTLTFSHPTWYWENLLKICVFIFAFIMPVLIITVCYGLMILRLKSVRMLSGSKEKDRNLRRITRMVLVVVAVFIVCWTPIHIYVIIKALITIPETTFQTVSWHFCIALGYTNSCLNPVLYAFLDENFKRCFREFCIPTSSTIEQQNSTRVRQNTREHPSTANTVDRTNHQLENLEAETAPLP
Experimental: (§1) Briefly, brains without cerebella were homogenised on ice in 5 volumes of ice-cold 50 mM Tris-HCI buffer (pH 7.4) and diluted in 30 volumes of the same buffer. After centrifugation at 40,000 x g for 20 min at 4°C, the pellets were resuspended in 30 volumes of Tris-HCI buffer and incubated at 37 °C for 30 min (rat brain) or for 10 min (guinea pig brain). The centrifugation step was repeated and the final pellets were resuspended in 5 volumes of 50 mM Tris-HCI buffer (pH 7.4) containing 0.32 M sucrose to give a protein concentration of 4 - 6 mg/ml. Protein concentration was determined by the method of Bradford using bovine serum albumin as standard.
(§2) Binding experiments were performed in 50 mM Tris-HCI buffer (pH 7.4) in a final volume of 1 ml containing 0.3 - 0.5 mg protein and different concentrations of the compounds. […] Guinea pig brain membranes were incubated with [^3H]U69,593 (30 min, 30 °C). Non-specific binding was determined in the presence of 10 µM unlabeled naloxone. […] Inhibition constant (Ki) values were calculated from competition binding curves using GraphPad Prism (San Diego, CA, USA) program. The values are expressed as the mean ± S.E.M of 2-4 independent experiments, each performed in duplicate.
(§3) The morphinan-6-one compounds of the present invention were evaluated in in vitro receptor binding assays for their interaction abilities with µ, δ and k opioid receptors. […] The affinities of the compounds at k opioid receptors were determined by displacement of [^3H]U69,593 using guinea pig brain membranes.

[3] = test system: C57BL/6N female mice; assay: Object recognition task; details: for object recognition (memory): normal mice; for effect on scopolamine-induced impairment of object recognition: scopolamine-pretreated mice
[4] = test system: frontal cortex synaptosomes; assay: ACh release from synaptosomes (15 mM K+-evoked [3H]-ACh release, superfusion); assay type: cell-based, male Sprague Dawley rats
Experimental: Preparation of synaptosomes: synaptosomes were prepared from brain frontal cortex of male Sprague Dawley rats (4 months old). The frontal cortex was rapidly dissected on ice and homogenized in 40 volumes of 0.32 M sucrose buffered at pH 7.4 with 0.01 M sodium phosphate. The homogenate was centrifuged at 1,000 g for 5 min. The crude synaptosomal pellet was obtained by centrifugation of the supernatant at 15,000 g for 20 min and was resuspended in 5 ml basal medium (125 mM Nacl, 3 mM KCI, 1.2 mM MgS04, 1.2 mM CaCl2, 1.0 mM NaH2PO4, 22 mM NaHCO3 and 10 mM glucose) which had been gassed with 95% O2 - 5% CO2 at 37 °C, pH 7.2 - 7.4.
Superfusion protocol: The synaptosomal suspension was incubated with [^3H]-choline (0.03 µM, 17.5x10^6 Bq/g) for 15 min at 37 °C. Then, the suspension was diluted (1:8) and aliquots were applied on filters in a continuous superfusion system with parallel chambers maintained at 37 °C. The media used for superfusion were basal medium and 15 mM K^+-containing stimulation medium. Both media were supplemented with ACh (1 µM) to facilitate the effectiveness of an allosteric potentiating ligand at the nicotine receptor and with atropine (0.1 µM) to block M2 presynaptic receptors. Synaptosomes were superfused with basal medium for 30 min to reach a constant outflow of [^3H]-ACh. Under these experimental conditions, the radioactivity released consisted largely of newly synthesized [^3H]-ACh. The K^+-stimulated release of [^3H]-ACh was determined in 2 subsequently collected fractions: 6 min basal release (superfusion with basal medium) and 6 min K^+-evoked release (superfusion for 1.5 min with 15 mM K^+-containing medium followed by […] basal medium). The test compounds galantamine, 4 and 2 were present in the superfusion medium concomitantly with 15 mM K^+ (for 1.5 min). Basal release of [^3H]-ACh (continuous superfusion with basal medium) was determined by collection of a 6 min sample followed by four subsequent 2 min samples. Aliquots of samples were mixed with scintillation liquid and the radioactivity quantified with a scintillation counter. The radioactivity bound to the filters was also measured.
Statistical analysis: The amount of [^3H]-ACh released in each sample was calculated as fraction of total synaptosomal tritium at the start of the respective collection period (tritium in the sample / sum of tritium in the respective fractions and in the synaptosomes on the filter). K^+-evoked release was expressed as percentage of basal release rate. Each n=1 represents the mean of an experiment with one synaptosomal preparation in at least 3 superfusion chambers. Statistical significance of group variances was calculated by one way ANOVA followed by Bonferroni's test.

[5] = test system: extracellular ACh concentration in the nucleus accumbens; details: for 0AUC120 min (% increase x min) Mean ± SEM: 0 to 120 min; for Increase in ACh release (Peak increase as % of basal output): nucleus accumbens
[6] = target: T1, δ opioid receptors (Rattus norvegicus, UniProt P33533); assay: Opioid receptor binding assay, [3H][Ile5,6]deltorphin II, rat brain membranes; parameters: species or system Sprague-Dawley rat
T1 construct: Membrane fractions were prepared from Sprague-Dawley rat or guinea pig brains; from tissue; host or cells: Sprague-Dawley rat brain (without cerebella) membranes
T1 sequence (P33533 whole entry): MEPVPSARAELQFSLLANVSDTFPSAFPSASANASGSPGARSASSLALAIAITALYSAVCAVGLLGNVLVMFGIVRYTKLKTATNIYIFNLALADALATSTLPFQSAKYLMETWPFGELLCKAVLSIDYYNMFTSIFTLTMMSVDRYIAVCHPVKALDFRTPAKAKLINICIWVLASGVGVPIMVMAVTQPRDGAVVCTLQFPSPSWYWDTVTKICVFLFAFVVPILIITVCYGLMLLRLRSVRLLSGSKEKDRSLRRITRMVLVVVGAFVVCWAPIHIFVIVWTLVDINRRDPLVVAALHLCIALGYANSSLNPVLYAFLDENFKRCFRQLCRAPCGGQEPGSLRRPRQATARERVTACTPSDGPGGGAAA
Experimental: as §1, §2, §3

[7] = target: T2, electric eel AChE (EC 3.1.1.7) (Electrophorus electricus, UniProt O42275); assay: Spectrophotometric assay for AChE inhibitory activity (modified Ellman's method); assay type: biochemical; details: 96-well microplate, 1% DMSO; read-out: AChE inhibitory activity IC50
T2 construct: purchased Sigma-Aldrich, Germany
T2 sequence (O42275 24-633): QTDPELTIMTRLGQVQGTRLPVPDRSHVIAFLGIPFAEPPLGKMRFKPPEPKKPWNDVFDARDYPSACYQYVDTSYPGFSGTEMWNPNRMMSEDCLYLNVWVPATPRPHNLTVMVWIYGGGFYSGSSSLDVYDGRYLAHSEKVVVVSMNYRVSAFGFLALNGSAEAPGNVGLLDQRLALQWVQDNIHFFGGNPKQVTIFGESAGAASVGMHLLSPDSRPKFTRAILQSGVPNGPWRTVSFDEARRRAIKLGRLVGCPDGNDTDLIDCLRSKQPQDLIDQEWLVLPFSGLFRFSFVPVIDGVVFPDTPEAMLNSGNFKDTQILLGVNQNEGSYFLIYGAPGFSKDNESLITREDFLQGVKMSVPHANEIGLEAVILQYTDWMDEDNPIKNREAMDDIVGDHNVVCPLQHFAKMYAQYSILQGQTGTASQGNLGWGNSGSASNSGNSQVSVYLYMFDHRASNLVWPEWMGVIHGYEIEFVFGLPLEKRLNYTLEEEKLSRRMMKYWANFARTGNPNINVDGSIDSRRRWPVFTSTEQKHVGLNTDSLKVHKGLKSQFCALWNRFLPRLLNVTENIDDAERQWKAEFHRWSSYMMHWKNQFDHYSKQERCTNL

With `O=CN1CC[C@]23CC(=O)CC[C@H]2[C@H]1Cc1c(O)ccc(O)c13` [Compound 1, 1,4-dihydroxy-N-formylmorphinan-6-one] the “relative center distance and move time” value ([1]; 0.01 µmol i.c.v.) was “had no effect”, the “relative center distance and move time” value ([1]; 0.1 µmol i.c.v.) was “increased the relative center distance and move time significantly” and the “general locomotion in the open field (move distance, move time)” value ([1]; 0.01 and 0.1 µmol i.c.v.) was “did not influence”. The Ki [2] was greater than 10 µM, the “binding to opioid receptor µ (in words)” value [2] was “does not bind” and the Ki ([2]; read-out: Opioid binding affinities Ki µ receptor, [3H]DAMGO, rat brain membranes) was greater than 10 µM. The “object recognition (memory)” value ([3]; 0.01 µmol i.c.v.) was “did not influence memory”, the “object recognition (memory)” value ([3]; 0.1 µmol i.c.v.) was “significant impairment” and the “effect on scopolamine-induced impairment of object recognition” value ([3]; 0.01 µmol i.c.v.) was “abolished the scopolamine-induced impairment of object recognition”. For the same molecule, the “concentration of maximal effect on stimulation-evoked ACh release” value ([4]; 15 mM K+) was 50 µM, the “influence of the nAChR antagonist mecamylamine on the compound-induced release” value ([4]; at the maximally effective concentration (1: 50 µM)) was “did not influence” and the “effect on stimulation-evoked ACh release” value ([4]; lower (0.1 and 1 µM) and higher concentrations (100 µM)) was “ineffective”. For the same molecule, the “0AUC120 min (% increase x min) Mean ± SEM” value ([5]; Dose 0.5 µmol i.c.v.) was 210 ± 31 % increase x min, the “Increase in ACh release (Peak increase as % of basal output)” value ([5]; Dose 0.5 µmol i.c.v.) was 65 ± 16 % and the “0AUC120 min (% increase x min) Mean ± SEM” value ([5]; Dose 1 µmol i.c.v.) was 1017 ± 214 % increase x min. For the same molecule, the “Increase in ACh release (Peak increase as % of basal output)” value ([5]; Dose 1 µmol i.c.v.) was 224 ± 39 %, the “AUC (area under the curve) of ACh (% of the basal value)” value ([5]; dose of 1 µmol i.c.v.) was 1117±214% and the “level of ACh, peak value (% of the basal value)” value ([5]; dose of 1 µmol i.c.v.) was 324±39%. The “dose dependence of the increase in extracellular brain ACh” value ([5]; i.c.v., across tested doses) was “dose-dependent increase”, the Ki [6] was greater than 10 µM and the “binding to opioid receptor δ (in words)” value [6] was “does not bind”. It also gave a Ki ([6]; read-out: Opioid binding affinities Ki δ receptor, [3H][Ile5,6]deltorphin II, rat brain membranes) greater than 10 µM and an IC50 [7] of 105 µM.

In the case of `C=CCN1CC[C@]23CC(=O)CC[C@H]2[C@H]1Cc1cccc(OC)c13` [Compound 4, 4-methoxy-N-allylmorphinan-6-one], the “general locomotion in the open field (move distance, move time)” value ([1]; 0.1 µmol i.c.v.) is reported as “did not influence”, the “fraction of locomotor activity in the central zone” value ([1]; dose not given) is reported as “did not influence” and the Ki [2] is reported as 0.0202 µM. For the same molecule, the “binding to opioid receptor µ (in words)” value [2] was “some µ opioid receptor affinity”, the “selectivity among opioid receptor types” value ([2]; from binding, Table 3) was “moderate selectivity for the µ type” and the “object recognition (memory)” value ([3]; 0.05 µmol i.c.v.) was “small impairment of memory”. For the same molecule, the “effect on scopolamine-induced impairment of object recognition” value ([3]; 0.05 µmol i.c.v.) was “abolished the scopolamine-induced impairment of object recognition”, the “effect on K+-evoked ACh release in frontal-cortex synaptosomes” value ([4]; 0.01 to 10 µM) was “did not influence ACh release” and the “effect on ACh in the superfusate (in words)” value ([5]; 0.25 µmol i.c.v., n=4, not shown) was “ineffective”. For the same molecule, the “effect on ACh in the superfusate (in words)” value ([5]; 0.5 µmol i.c.v.) was “short, delayed increase”, the “toxicity at higher doses” value ([5]; 1 µmol and above, i.c.v., anaesthetized rats) was “could not be tested because of toxicity” and the “0AUC120 min (% increase x min) Mean ± SEM” value ([5]; Dose 0.25 µmol i.c.v.) was “inactive”. The “Increase in ACh release (Peak increase as % of basal output)” value ([5]; Dose 0.25 µmol i.c.v.) was “inactive”, the “0AUC120 min (% increase x min) Mean ± SEM” value ([5]; Dose 0.5 µmol i.c.v.) was 85 ± 26 % increase x min and the “Increase in ACh release (Peak increase as % of basal output)” value ([5]; Dose 0.5 µmol i.c.v.) was 43 ± 19 %. For the same molecule, the Ki [6] was 0.316 µM and the IC50 [7] was 1 µM.
